Laboratory results from patent publication US20230233674A1 (priority 2022, published 2023).

Tested on: Influenza A/Hong Kong/2369/2009 (H1N1)
Conditions: mouse, in vivo

CCOC(=O)C1=C[C@@H](OC(CC)CC)[C@H](NC(C)=O)[C@@H](N)C1 [Oseltamivir]
mean peak weight loss: −32% | mice that succumbed to the disease: 90% | treatment effect: no significant effect
